From patent US5550249A, “Water soluble derivatives of biotin and related therapeutical compositions” (Lifegroup, S.p.A., priority 1991, dated 1996)
Like-named read-outs stand apart in the source and are kept apart here.

Experiments:
[1] = Partition in water/octanol (14C-biotin, scintillation counting); type: physicochemical
Procedure: ^14 C-biotin (53000 dpm) was used admixed with cool biotin (0.25 mmol) in 5 ml of twice distilled water, in the presence and in the absence of ethanolamine (3 μl), then adding 5 ml of octanol and stirring (1 minute by means of a stirrer VORTEX). After separation of the phases the radioactivity was measured by scintillation (Beckman counter) in 1 ml of sample. The amount of ^14 C-biotin transferred into the octanolic phase was 14443 dpm in the absence of ethanolamine and 82 dpm in the presence of ethanolamine.
This confirms the increase in solubility in the aqueous phase, which is a consequence of the salification.

Water solubility = type: physicochemical; conditions: salts of biotin with an aminoalcohol
[2] = Solubility in cold ethanol; type: physicochemical
[3] = cited from earlier work
vitamin H deficiency = conditions: cited from earlier work
[4] = system: carboxylase enzymes deficiency; conditions: cited from earlier work
[5] = system: seborrheal dermatitis of the newborn; conditions: cited from earlier work
diabetes = conditions: cited from earlier work
[6] = system: peripheral neuropathies having diabetic origin; conditions: human beings; cited from earlier work
glucokinase = conditions: recent studies; cited from earlier work
insulin = conditions: recent studies; cited from earlier work
[7] = water/octanol, average of 3 tests

Q: What does the source list for `O=C(O)CCCC[C@@H]1SC[C@@H]2NC(=O)N[C@@H]21` [^14 C-biotin]?
A: change of amount of 14C-biotin transferred into the octanolic phase ([1]; aqueous phase brought to pH 4, in the absence of ethanolamine): always remains the same; increase of amount of 14C-biotin transferred into the octanolic phase ([1]; aqueous phase brought to pH 4, in the presence of ethanolamine): 170 times; amount of 14C-biotin transferred into the octanolic phase ([1]; in the absence of ethanolamine): 14443 dpm; amount of 14C-biotin transferred into the octanolic phase ([1]; in the presence of ethanolamine (3 μl)): 82 dpm

Q: Which “H2O (dpm)” value ([1]; pH 4, average of 3 tests) does the source give for `O=C(O)CCCC[C@@H]1SC[C@@H]2NC(=O)N[C@@H]21` [Ethanolamine biotinate, ethanolamine biotinate] here?
A: 32148 dpm

Q: And the H2O/octanol ([1]; pH 4, average of 3 tests)?
A: 2.6

Q: And the “octanol (dpm)” value ([1]; pH 4, average of 3 tests)?
A: 12300 dpm

Q: And the “H2O (dpm)” value [1, 7]?
A: 36664 dpm

Q: And the H2O/octanol [1, 7]?
A: 447.1

Q: And the “octanol (dpm)” value [1, 7]?
A: 82 dpm

Q: What about the “water solubility (in words)” value (Water solubility) of the same molecule?
A: completely water soluble

Q: And the “solubility in cold ethanol (in words)” value [2]?
A: rather soluble in cold ethanol

Q: Which “H2O (dpm)” value ([1]; pH 4, average of 3 tests) does the source give for `O=C(O)CCCC[C@@H]1SC[C@@H]2NC(=O)N[C@@H]21` [Biotin, biotin] here?
A: 40769 dpm

Q: What about the H2O/octanol ([1]; pH 4, average of 3 tests) of the same molecule?
A: 2.9

Q: What about the “octanol (dpm)” value ([1]; pH 4, average of 3 tests) of the same molecule?
A: 13991 dpm

Q: And the “H2O (dpm)” value [1, 7]?
A: 40940 dpm

Q: What about the H2O/octanol [1, 7] of the same molecule?
A: 2.8

Q: And the “octanol (dpm)” value [1, 7]?
A: 14443 dpm

Q: What about the water solubility ([3]; biotin as such) of the same molecule?
A: 22 mg/100 ml

Q: What about the “water solubility (in words)” value ([3]; prior art) of the same molecule?
A: poor water solubility

Q: What about the egg-white injury (vitamin H deficiency; Sidenstricker and co-workers, 1942) of the same molecule?
A: can be defeated

Q: And the “secondary effects of vitamin deficiency” value (vitamin H deficiency; following administration of biotin for a certain time)?
A: disappeared

Q: And the “effect in diseases coming from a deficiency in multiple carboxylase enzymes” value ([4]; multiple carboxylase enzymes)?
A: effective

Q: And the “effect in diseases caused by single carboxylase enzymes insufficiency” value ([4]; single carboxylase enzymes (propionyl-CoA, pyruvate, β-methyl-crotonyl carboxylase))?
A: uneffective

Q: What about the “effect in seborrheal dermatitis in the newborn” value [5] of the same molecule?
A: particularly effective

Q: And the blood glucose level (diabetes; insulin-dependent diabetics)?
A: lowers the blood glucose level

Q: What about the glucose tolerance (diabetes; insulin-independent diabetes) of the same molecule?
A: increase glucose tolerance

Q: And the post-prandial glucose level (diabetes; insulin-independent diabetes)?
A: reduce the post-prandial glucose level

Q: What about the resistance to insulin (diabetes; insulin-independent diabetes) of the same molecule?
A: lower resistance to insulin

Q: What about the “treatment and prevention of diabetic peripheral neuropathies” value [6] of the same molecule?
A: advantageously utilized

Q: And the activation of glucokinase (glucokinase)?
A: able to activate

Q: And the activation of insulin (insulin)?
A: able to activate
